Measured values reported in patent US4077949A, “Polypeptide hormones of the thymus” (Sloan-Kettering Institute for Cancer Research, priority 1975, dated 1978).
Ends that are not written are not given here.

Tests used:
[1] = test system: neuromuscular transmission; test: Electromyographic assay of neuromuscular transmission in mice after injection; type: in vivo; details: for activity of QAE-Sephadex fractions in producing neuromuscular block: fractions of Example 1, FIG. 3; for dose above which a statistically significant (P < .001) electromyographic decrement was produced / mean decrement: height of the tenth muscle action potential as % of the first: mice; for dose above which a statistically significant (P < .001) electromyographic decrement was produced: five days after dose, supramaximal nerve stimulation at 50 impulses per second; for mean decrement: height of the tenth muscle action potential as % of the first: five days after doses above threshold, 50 impulses per second, controls 94 ± 2%; for active dose range per body weight: test not specified
Protocol: To determine the neuromuscular action of Thymin I and Thymin II, the electromyographic response of mice five days after various doses of Thymin I or Thymin II is summarized in FIG. 4. Bovine serum albumin (0.5 mg/ml, 0.9% saline) was used as a protein stabilizer and controls were injected with the solvent alone.
In 15 control mice sampled at 75 sites the height of the tenth muscle action potential was 94 ± 2% (mean ± s.e.m.) of the height of the first. The mean values and s.e.m. (vertical bars) are shown for groups of 4-10 mice given various doses of Thymin I(o) and Thymin II (.quadrature.). Statistical significances of differences from the controls were calculated by Student's t-test and are shown by solid symbols (P < 0.001), half solid symbols (0.05 > P < 0.001) and open symbols (P > 0.05).
Mice were given 100 ng of Thymin I or solvent and five mice from each group were tested at various times. With supramaximal nerve stimulation at 50 impulses per second the height of the tenth muscle action potential was expressed as a percentage of the first. This change was calculated for five points in each of five to ten mice from each group. For each time point the change in Thymin-treated mice was expressed as a percentage of the change in solvent-treated control mice and the statistical significance of the difference was assessed by Student's t-test. A statistically significant (P < .001) abnormality in the electromyogram was first evident at 18 hours, was maximal at 24 hours and persisted through 5 days.
To make the determinations described in FIGS. 4 and 5, extracts were injected into test animals and neuromuscular transmission was studied after an interval of one to five days. Initially 100 g guinea pigs were injected intraperitoneally; neuromuscular transmission was studied in vitro with a preparation of the phrenic nerve and hemidiaphragm. Subsequently, 200 g rats were used; fractions were injected subcutaneously and neuromuscular transmission was assessed electromyographically. […] Female Swiss-Webster mice weighing 25-35 g were injected intraperitoneally, groups of five to ten mice being used to test each fraction. The animals were anesthetized with urethane and electromyography was performed as described. The muscle action potentials were recorded in each mouse following supramaximal nerve stimulation with ten impulses at a rate of 50 per second. Five sites were sampled in each mouse and for each group of mice the mean standard deviation and s.e.m. were calculated for the change in the height of the muscle action, potential being expressed as a percentage of the height of the first impulse.
The statistical significance of differences found were assessed by student's t-test.

[2] = test system: Thy-1(θ) antigen on mouse bone marrow cells; test: Cytotoxic inhibition test: induction of Thy-1(θ) antigen on bone marrow cells; type: cell-based; details: unfractionated cells, 100 ng/ml, 18 hours
Description: (§1) Mice of the A/J, C57B1/6J, AKR/J and C58/J strains were purchased from the Jackson Laboratories (Bar Harbon, Me). A.TL-mice were bred at New York University from foundation stock. All mice were housed eight to a cage, and maintained on commercial high protein mouse pellets and acidified water.
(§2) Antibodies to TL antigen were produced by injecting live tumor cells (ASL-1) into A.TL- x C57B1/6J F.1 mice. After five semimonthly injections the animals were bled and the resultant serum pooled, absorbed with A.TL- thymus to remove autoantibodies, and stored in small aliquots at -70° C. […] Anti Thy 1-2 (0-C3H) was produced by injecting AKR/J mice with C58/J thymocytes and absorbing the resultant antiserum with AKR/J thymocytes.
Thymin I and Thymin II were isolated from bovine thymus as described. Each was dissolved in phosphate buffered saline (containing 1 mg/ml of bovine serum albumen to minimize adsorbtive losses), distributed into 2 μg lots and lyophilized. […]
Antisera to either TL or Thy-1 (0) were titered to determine the quantity of antibody which was required to kill 50% of the target cells in a standard suspension. […] The cells were then repelleted by centrifugation and a 0.075 ml aliquot of the supernatant fluid was counted in an automatic gamma spectrometer to determine the amount of Cr^51 released from the target cells. […] The RCI was calculated as follows: [formula]

[3] = test system: TL antigen on mouse bone marrow cells; test: Cytotoxic inhibition test: induction of TL antigen on bone marrow cells; type: cell-based; details: for absorption of anti TL antibody by incubated bone marrow cells: unfractionated cells, 100 ng/ml, 18 hours
Description: as §1, §2
Thymin I and Thymin II were isolated from bovine thymus as described. Each was dissolved in phosphate buffered saline (containing 1 mg/ml of bovine serum albumen to minimize adsorbtive losses), distributed into 2 μg lots and lyophilized. Each polypeptide was reconstituted in tissue culture medium at the desired concentrations just prior to use.
(§3) Bone marrow cells were obtained from the femoral marrow. Both spleen and marrow cells were teased into single cell suspensions and washed three times in RPMI 1640 medium supplemented with 10 mM Hepes and 100 U/ml of penicillin and 100 μg/ml of streptomycin. The cells were then suspended in the same medium with 10% bovine serum at a concentration of 5.0×10^6 cells/ml. One milliliter of this suspension was incubated with an appropriate dilution of thymin in 16 mm plastic petrie dishes in a humidified atmosphere containing 5% CO2 in air. At the end of the incubation the cells were washed twice and held at 4° C. at a concentration of 5.0×10^6 cells/ml in culture medium until tested for the presence of TL or Thy-1(0).
ASL-1, a TL positive, Thy 1-2 (0-C3H) positive lymphoma of A strain mice was used as the target cell in all titrations of the antisera used in these experiments, and in the cytotoxic inhibition test to be described below. The lymphoma was maintained by weekly intraperitoneal passage in A/J mice. Lymophoma cells were labelled with Cr^51 and used as target cells in the cytotoxic inhibited test.
Antisera to either TL or Thy-1 (0) were titered to determine the quantity of antibody which was required to kill 50% of the target cells in a standard suspension. The appropriate amount of antiserum was added to each well of a microtiter plate with various dilutions of the cells being tested for their antigen content. The total volume was 0.15 ml. Cells expressing the antigen against which the antiserum was directed absorbed varying amounts of the antibody, and rendered less available to react with the Cr^51 labelled target cells which were added subsequently. The concentration of antibody used was extremely critical to the sensitivity of the test. The antisera to TL or Thy-1 (0) and the cells being tested for their antigen content were incubated together at 4° C. for 90 minutes. After this incubation 50,000 target cells in a volume of […] were added and the incubation continued in the cold for an additional 30 minutes to permit the sensitization of the target cells by the remaining unabsorbed antibody. The plates were then centrifuged at 1,500 rpm for 10 minutes and the supernatant fluid removed. The pelleted cells were resuspended in 0.1 ml or RPMI 1640, containing 4% fresh rabbit serum as a source of complement, and incubated for 45 minutes at 37° C. The cells were then repelleted by centrifugation and a 0.075 ml aliquot of the supernatant fluid was counted in an automatic gamma spectrometer to determine the amount of Cr^51 released from the target cells. All assays were performed in duplicate and the results were expressed by calculating the number of cells required to reduce the relative cytotoxic index (RCI) to 0.5. The RCI was calculated as follows: [formula]

[4] = test system: bone marrow cells (least dense BSA gradient fraction); test: Direct cytotoxic test (trypan blue), anti TL antiserum plus complement, bone marrow cells; type: cell-based
Protocol: as §3
(§4) Bone marrow and spleen cells were obtained by flotation in BSA gradients similar to those used by Komuro and Boyse (Lancet, 10, 39, 1964). These cells were tested for their susceptibility to anti TL and Thy-1-(0) antibodies in a direct cytotoxicity test, using the uptake of trypan blue as a measure of cell death.

[5] = test system: spleen cells (least dense BSA gradient fraction); test: Direct cytotoxic test (trypan blue), anti TL antiserum plus complement, spleen cells; type: cell-based, mouse; details: 20 ng/ml for two hours
Protocol: as §3, §4

[6] = Thymin I compared with Thymin II
[7] = single injection of 100 ng per mouse

| Substance | activity of QAE-Sephadex fractions in producing neuromuscular block [1] | dose above which a statistically significant (P < .001) electromyographic decrement was produced [1] | mean decrement: height of the tenth muscle action potential as % of the first [1] | active dose range per body weight [1] | absorption of anti Thy-1(θ) antibody by incubated bone marrow cells [2] | absorption of anti TL antibody by incubated bone marrow cells [3] | relative activity on neuromuscular transmission [1, 6] | time at which abnormality in the electromyogram was maximal [1, 7] | time through which abnormality in the electromyogram persisted [1, 7] | time at which abnormality in the electromyogram was first evident ([1]; single injection of 100 ng per mouse, P < .001) | death of bone marrow cells caused by anti TL antiserum plus complement ([4]; 20 ng/ml for two hours, least dense fraction) | highest cell death values obtained in other experiments ([4]; anti TL antiserum plus complement, tissue not specified) | death of spleen cells caused by anti TL antiserum plus complement [5] | active concentration as a fraction of that of the Bach et al. preparation [3] | relative potency in inducing TL and Thy-1(θ) antigens [3, 6] | concentration giving maximal induction of TL and Thy-1(θ) antigens ([3]; bone marrow cells) | lowest concentration producing a measurable (detectable) response ([3]; bone marrow cells) |
| --- | --- | --- | --- | --- | --- | --- | --- | --- | --- | --- | --- | --- | --- | --- | --- | --- | --- |
| H2 n-ser-gln-phe-leu-glu-asp-pro-ser-val-leu-thr-lys-glu-lys-leu-lys-ser-glu- leu-val-ala-asn-asn-val-thr-leu-pro-ala-gly-glu-gln-arg-lys-asp-val-tyr-val-gln-leu-tyr-leu-gln-thr-leu-thr-ala-val-lys-arg-cooh [Thymin II] | active in producing neuromuscular block | above 32 ng/mouse | 82% | above 0.1 mg/kg of body weight | absorbed antibodies | absorbed antibodies |  |  |  |  |  |  |  |  |  |  |  |
| GQFLEDPSVLTKEKLKSELVANNVTLPAGEQRKDVYVQLYLQHLTAVKR [Thymin I, H2 -gly-gln-phe-leu-glu-asp-pro-ser-val-leu-thr-lys-glu-lys-leu-lys-ser-glu-leu-val-ala-asn-asn-val-thr-leu-pro-ala-gly-glu-gln-arg-lys-asp-val-tyr-val- gln-leu-tyr-leu-gln-his-leu-thr-ala-val-lys-arg-cooh] | active in producing neuromuscular block | above 4 ng/mouse | 84% | above 0.1 mg/kg of body weight | absorbed antibodies | absorbed antibodies | slightly more active | 24 h | ≥ 5 days | 18 h | 21% | ≤ 28% | 18% | approximately one thousandth | slightly more potent | 2 ng/mL | 20 pg/mL |
